{
  "source": "patent US20250241917A1",
  "about": "“SMALL MOLECULE ENHANCERS OF ANTISENSE OLIGO ACTIVITY” (Oregon State University, priority 2022, published 2025)",
  "key": {"HeLa pLuc/705 cells": {"tested_on": "HeLa pLuc/705 cells", "test": "HeLa pLuc/705 assay (luciferase splice-correction readout of ASO activity with enhancer co-treatment)", "assay_type": "cell-based", "settings": "for increase in 2′-MOE PS activity: 2′-MOE PS fixed at 2.5 μM; for increase in 2′-OMe PS activity: 2′-OMe PS fixed at 5 μM; for increase in PPMO activity: PPMO fixed at 5 μM; for enhancing performance in screen of Selleck Chemicals FDA-approved drug library: primary screen 10 μM, secondary screen 0.1-20 μM; for enhancer concentration range that significantly enhances ASO activity on co-treatment of cells: cell culture co-treatment with ASO or macromolecule; for enhancement of unmodified PMO activity: varied PMO concentration, enhancer fixed (febuxostat 2.5 μM; lonafarnib 250 nM), manual format (96 wells)", "text": "The Hela pLuc/705 assay provides a positive readout of ASO's splice-modifying activity. Because messenger RNA (mRNA) splicing occurs in the cell's nucleus, the assay's output is indicative of the effectiveness of delivery of splice-modifying oligomers into the nucleus, which necessarily implies effective cytosolic delivery. The assay utilizes a genetically modified HeLa cell line that has been stably transfected with a gene containing coding sequence for a reporter enzyme (luciferase) and a mutated intron inserted within the coding sequence. The mutated intron cannot be properly excised resulting in an in-frame stop codon in the luciferase coding sequence, which prevents expression of functional luciferase. Two conditions must be met to produce the functional enzyme. First, an ASO must enter the cell nucleus to block the mutated splice site, thus restoring normal splicing and read through of the reporter message. The result is mRNA encoding functional reporter protein. Second, but equally important, the cells must be viable to carry out RNA processing and translation so that reporter protein activity is produced.\nCorrection through successful nuclear delivery of a splice-modifying ASO restores luciferase expression, which is then quantified by measurement of cell lysate luminescence with addition of luciferin substrate. This assay is a standard measure of intracellular ASO delivery within the field.\nThe HeLa pLuc/705 assay was miniaturized in order to allow it to be performed in […] cell culture plates, enabling the assay to be adapted to the high-throughput screening setting. The aim was to screen small molecules, with an emphasis on FDA-approved drugs, for ability to enhance ASO splice-modifying activity, which would be indicated by an increase in luminescence relative to cells treated with the ASO alone. In order to validate the approach, a positive control molecule was utilized which was already known to increase ASO activity when used alongside the ASO. Initially, a peptide intended for use in cell culture was used. Subsequently, febuxostat was used as a positive control.\nThe first screened compounds were the compounds in the Selleck Chemicals FDA-approved drug library for enhancing activity. This library contains 1430 compounds. Library compounds were dispensed to 10 μM in the plate wells. […] These sixteen compounds were evaluated for enhancing performance over the concentration range 0.1-20 μM. This enabled validation of the primary screening results, as well as to evaluate relative performance of hits through observation of concentration-dependent activity. Hits were evaluated based on relative enhancing performance, and they were also qualitatively evaluated for suitability for future therapeutic use, considering the identity, indication and approval status of the compound.\nHeLa pLuc/705 cells were seeded into 384-well plates ([…] well volume) and incubated for 24 hours. At 24 hours, DMSO solutions of OAEs were added to subconfluent cells using an HP D300 Digital Dispenser, followed by addition of a testing ASO or DMSO. Cells were incubated for 24 hours. At 24 hours treatment time, growth medium was removed from the cells and […] of a lysis buffer/luciferin solution was added to each well. Luminescence was measured using a BioTek plate reader 5 minutes following addition of the lysis buffer/luciferin solution. Background luminescence values (generated using OAE only/DMSO-matched controls) were subtracted from experimental values. These methods apply to the commonly employed format for the assay using the HP D300 Digital Dispenser, with slight variations used for the high-throughput and manual formats."}, "[1]": {"settings": "degrades to tizoxanide; cited from earlier work"}, "[2]": {"settings": "in vivo, po; cited from earlier work"}, "[3]": {"settings": "mice, intraperitoneal administration at 10 mg/kg; cited from earlier work"}, "[4]": {"settings": "varied ASO concentration, enhancer fixed (resveratrol 10 μM)"}},
  "data": [
    {"smiles": "Cc1nc(-c2ccc(OCC(C)C)c(C#N)c2)sc1C(=O)O", "note": "[febuxostat]", "values": [
      {"measurement": "increase in 2′-MOE PS activity", "setting": "HeLa pLuc/705 cells; enhancer at 5 μM", "value": 3, "unit": "fold"},
      {"measurement": "increase in 2′-OMe PS activity", "setting": "HeLa pLuc/705 cells; enhancer at 10 μM", "value": 6.4, "unit": "fold"},
      {"measurement": "result in screen of MicroSource Discovery Spectrum library", "setting": "HeLa pLuc/705 cells; PPMO", "value": "strong hit"},
      {"measurement": "increase in PPMO activity", "setting": "HeLa pLuc/705 cells; enhancer at 10 μM", "value": 7.9, "unit": "fold"},
      {"measurement": "enhancing performance in screen of Selleck Chemicals FDA-approved drug library", "setting": "HeLa pLuc/705 cells; PPMO", "value": "strong performers"},
      {"measurement": "enhancer concentration range that significantly enhances ASO activity on co-treatment of cells", "setting": "HeLa pLuc/705 cells", "value": "0.25 to 20", "unit": "µM"},
      {"measurement": "enhancement of unmodified PMO activity", "setting": "HeLa pLuc/705 cells", "value": "found to enhance the activity"}
    ]},
    {"smiles": "CC(=O)Oc1ccccc1C(=O)Nc1ncc([N+](=O)[O-])s1", "note": "[nitazoxanide]", "values": [
      {"measurement": "degradation in human plasma", "setting": "[1]", "value": "degrade very rapidly"},
      {"measurement": "enhancement of PPMO activity in screen of NIH Clinical Collection", "setting": "HeLa pLuc/705 cells; PPMO", "value": "significant enhancement"},
      {"measurement": "enhancer concentration range that significantly enhances ASO activity on co-treatment of cells", "setting": "HeLa pLuc/705 cells", "value": "5 to 20", "unit": "µM"}
    ]},
    {"smiles": "Oc1ccc(/C=C/c2cc(O)cc(O)c2)cc1", "note": "[resveratrol]", "values": [
      {"measurement": "maximum plasma concentration", "setting": "[2]", "value": 2.4, "unit": "µM"},
      {"measurement": "increase in 2′-OMe PS activity", "setting": "HeLa pLuc/705 cells; enhancer at 10 μM", "value": 1.5, "unit": "fold"},
      {"measurement": "increase in PPMO activity", "setting": "HeLa pLuc/705 cells; enhancer at 10 μM", "value": 2.1, "unit": "fold"},
      {"measurement": "enhancing performance in screen of Selleck Chemicals FDA-approved drug library", "setting": "HeLa pLuc/705 cells; PPMO", "value": "found to be an OAE"},
      {"measurement": "enhancer concentration range that significantly enhances ASO activity on co-treatment of cells", "setting": "HeLa pLuc/705 cells", "value": "1 to 20", "unit": "µM"},
      {"measurement": "enhancement of 2′-MOE PS activity", "setting": "HeLa pLuc/705 cells; fixed ASO concentration, varied enhancer concentration", "value": "did not show enhancement"},
      {"measurement": "enhancement of 2′-MOE PS ASO activity", "setting": "HeLa pLuc/705 cells; [4]", "value": "did show enhancement"},
      {"measurement": "enhancement of 2′-OMe PS ASO activity", "setting": "HeLa pLuc/705 cells; [4]", "value": "failed to enhance activity"}
    ]},
    {"smiles": "NC(=O)N1CCC(CC(=O)N2CCC([C@H]3c4ncc(Br)cc4CCc4cc(Cl)cc(Br)c43)CC2)CC1", "note": "[lonafarnib]", "values": [
      {"measurement": "increase in 2′-MOE PS activity", "setting": "HeLa pLuc/705 cells; enhancer at 250 nM", "value": 2.1, "unit": "fold"},
      {"measurement": "increase in 2′-OMe PS activity", "setting": "HeLa pLuc/705 cells; enhancer at 250 nM", "value": 3, "unit": "fold"},
      {"measurement": "increase in PPMO activity", "setting": "HeLa pLuc/705 cells; enhancer at 250 nM", "value": 2.6, "unit": "fold"},
      {"measurement": "enhancing performance in screen of Selleck Chemicals FDA-approved drug library", "setting": "HeLa pLuc/705 cells; PPMO", "value": "strong performers"},
      {"measurement": "enhancer concentration range that significantly enhances ASO activity on co-treatment of cells", "setting": "HeLa pLuc/705 cells", "value": "0.1 to 20", "unit": "µM"},
      {"measurement": "enhancement of unmodified PMO activity", "setting": "HeLa pLuc/705 cells", "value": "found to enhance the activity"}
    ]},
    {"smiles": "Nc1nc2ccc(Cl)cc2c2nc(-c3ccco3)nn12", "note": "[CGS-15943]", "values": [
      {"measurement": "adverse effects", "setting": "[3]", "value": "no reported adverse effects"},
      {"measurement": "increase in 2′-MOE PS activity", "setting": "HeLa pLuc/705 cells; enhancer at 10 μM", "value": 2.6, "unit": "fold"},
      {"measurement": "increase in 2′-OMe PS activity", "setting": "HeLa pLuc/705 cells; enhancer at 10 μM", "value": 3.2, "unit": "fold"},
      {"measurement": "enhancement of PPMO activity in screen of NIH Clinical Collection", "setting": "HeLa pLuc/705 cells; PPMO", "value": "significant enhancement"},
      {"measurement": "increase in PPMO activity", "setting": "HeLa pLuc/705 cells; enhancer at 10 μM", "value": 4, "unit": "fold"},
      {"measurement": "enhancer concentration range that significantly enhances ASO activity on co-treatment of cells", "setting": "HeLa pLuc/705 cells", "value": "0.25 to 20", "unit": "µM"}
    ]}
  ]
}
